{
  "source": "ChEMBL document CHEMBL1201862",
  "about": "“PubChem BioAssay data set” (2004)",
  "key": {"[1]": {"test": "inhibitors of firefly luciferase expression or activity, dose response, H4 neuroglioma cells, luminescence (AID 1990)", "assay_type": "functional, cell-based"}, "[2]": {"test": "Luminescence Cell-Based Dose Response HTS to Identify Inhibitors of 5'UTR Stem-Loop Driven Prion Protein mRNA Translation in H4 Neuroglioblastoma Cells. [Related pubchem assays: 1827 (Project Summary), 1813 (Primary HTS)]", "assay_type": "functional"}, "[3]": {"test": "inhibitors of SNCA 5'UTR-driven reporter translation, confirmation, H4 neuroglioma cells, luminescence (AID 1988)", "assay_type": "functional, cell-based"}, "INS1": {"system": "INS1", "test": "beta cell apoptosis inhibitors, cytokine rescue, dose response, luminescence, retest (AID 449756);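 also: cell death triggered by IL-1 beta plus TNF-alpha plus IFN-gamma mixture; protective hits raise ATP signal compared with cytokine alone wells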", "assay_type": "functional, cell-based", "conditions": "Rattus norvegicus"}, "HeLa": {"system": "HeLa", "test": "HeLa cell cytotoxicity, dose response, cytotoxicity control, ATP luminescence, cherry-pick samples (AID 687004)", "assay_type": "functional, cell-based", "conditions": "Homo sapiens"}, "[4]": {"test": "miR-122 activators in hepatoma reporter cells, dose response, cell-based, Huh7 psiCHECK-miR122, Renilla luciferase, cherry-picked (AID 651956);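 also: huh7 hepatoma cells stably carrying a psiCHECK-2 miR-122 sensor plasmid; renilla luciferase signal reporting endogenous miR-122 activity after 48 h compound exposure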", "assay_type": "functional"}, "[5]": {"molecular_target": "T1, DNA repair protein RAD52 homolog (Homo sapiens, UniProt P43351)", "T1 sequence (P43351 whole entry)": "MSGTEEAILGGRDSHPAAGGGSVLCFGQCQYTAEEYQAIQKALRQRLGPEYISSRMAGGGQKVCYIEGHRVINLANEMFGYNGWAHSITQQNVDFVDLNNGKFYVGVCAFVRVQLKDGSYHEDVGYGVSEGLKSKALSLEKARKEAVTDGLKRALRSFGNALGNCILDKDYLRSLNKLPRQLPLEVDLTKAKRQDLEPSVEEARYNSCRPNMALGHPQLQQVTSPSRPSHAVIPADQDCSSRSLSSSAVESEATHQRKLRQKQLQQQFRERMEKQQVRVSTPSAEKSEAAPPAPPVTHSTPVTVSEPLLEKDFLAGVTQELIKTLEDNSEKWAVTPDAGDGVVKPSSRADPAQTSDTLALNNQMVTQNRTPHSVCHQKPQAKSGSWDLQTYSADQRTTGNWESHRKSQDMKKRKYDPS", "assay_type": "functional, biochemical"}, "[6]": {"test": "HEK293T cytotoxicity, dose response, cytotoxicity control for miR-122 modulator project, cell-based, inhibitor set, cherry-pick, set 2 (AID 720697)", "assay_type": "functional"}, "[7]": {"test": "HEK293T cytotoxicity, dose response, cytotoxicity control for miR-122 modulator project, cell-based, activator set, cherry-pick (AID 720690);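 also: HEK293T human cells scored for general mammalian cytotoxicity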", "assay_type": "functional"}, "Beta-galactosidase": {"molecular_target": "Beta-galactosidase (Escherichia coli, UniProt Q8VNN2)", "test": "Dose response counterscreen for EBI2 assay utilizing the enzyme, b-galactosidase.", "assay_type": "functional"}, "[8]": {"molecular_target": "T2, Beta-2 adrenergic receptor (Homo sapiens, UniProt P07550)", "test": "beta2AR agonists driving receptor internalization, dose response, cell-based, FAP fluorogen, flow cytometry, cherry pick 1 (AID 588763)", "assay_type": "functional"}, "[9]": {"molecular_target": "T2, Beta-2 adrenergic receptor", "test": "Dose response for HTS for Beta-2AR agonists via FAP method from Powderset3.", "assay_type": "functional"}, "Prothrombin": {"molecular_target": "Prothrombin (Homo sapiens, UniProt P00734)", "test": "Thrombin 1536 HTS Dose Response Confirmation. [Related pubchem assays: 1046 (Thrombin 1536 HTS; hits were confirmed in this assay)]", "assay_type": "functional"}, "[10]": {"molecular_target": "Broad substrate specificity ATP-binding cassette transporter ABCG2 (Homo sapiens, UniProt Q9UNQ0)", "test": "ABCG2 efflux pump inhibitors, dose response, Ig-MXP3 cells, flow cytometry (AID 1690)", "assay_type": "functional"}, "[11]": {"molecular_target": "Peroxisome proliferator-activated receptor gamma/Nuclear receptor coactivator 1 (Homo sapiens, UniProt P37231)", "test": "(§1) TR-FRET dose response biochemical High Throughput Screening assay for agonists of the steroid receptor coactivator 1 (SRC-1) recruitment by the peroxisome proliferator-activated receptor gamma (PPAR gamma): non-selective agonists. [Related pubchem assays (depositor defined):AID1300, AID1808, AID504735, AID631]", "assay_type": "protein assay"}, "[12]": {"molecular_target": "Peroxisome proliferator-activated receptor gamma/Nuclear receptor coactivator 3 (Homo sapiens, UniProt P37231)", "test": "as §1, with “3 (SRC-3)” for “1 (SRC-1)”, “assays: 1301 (Confirmation screen.), 1048 (Primary screen.)]” for “assays (depositor defined):AID1300, AID1808, AID504735, AID631]”", "assay_type": "functional"}, "[13]": {"molecular_target": "Peroxisome proliferator-activated receptor gamma/Nuclear receptor coactivator 2 (Homo sapiens, UniProt P37231)", "test": "TR-FRET dose response biochemical High Throughput Screening assay for agonists of the steroid receptor coactivator 2 (SRC-2) recruitment by the peroxisome proliferator-activated receptor gamma (PPAR gamma): non-selective agonists. [Related pubchem assays: 1297, 1032 ]", "assay_type": "functional"}, "[14]": {"molecular_target": "DNA dC->dU-editing enzyme APOBEC-3A (Homo sapiens, UniProt P31941)", "test": "APOBEC3A DNA deaminase inhibitors, dose response, biochemical (AID 504722)", "assay_type": "functional"}, "[15]": {"molecular_target": "DNA dC->dU-editing enzyme APOBEC-3G (Homo sapiens, UniProt Q9HC16)", "test": "Dose Response confirmation of small molecule APOBEC3G DNA Deaminase Inhibitors via a fluorescence-based single-stranded DNA deaminase assay. [Related pubchem assays (depositor defined):AID493012, AID493028]", "assay_type": "functional"}, "[16]": {"molecular_target": "FAD-linked sulfhydryl oxidase ALR (Homo sapiens, UniProt P55789)", "test": "inhibitors of human ALR sulfhydryl oxidase, dose response, biochemical, H2O2 detection, luminescence, cherry-pick (AID 493248)"}, "Major prion protein": {"molecular_target": "Major prion protein (Homo sapiens, UniProt P04156)", "assay_type": "functional, cell-based"}},
  "note": "Active and inactive are the calls of the source.",
  "data": [
    {"smiles": "CC(=O)c1sc(NC(=O)C2(F)C(F)(F)C(F)(F)C(F)(F)C(F)(F)C2(F)F)nc1C", "values": [
      {"measurement": "EC50", "setting": "[1]", "value": "> 120 µM (not active)"},
      {"measurement": "EC50", "setting": "[2]", "value": "> 120 µM (not active)"},
      {"measurement": "EC50", "setting": "[3]", "value": "32.2 µM (active)"},
      {"measurement": "AC50", "setting": "INS1", "value": "4.23 µM (active)"},
      {"measurement": "AC50", "setting": "HeLa", "value": "22.6 µM (active)"}
    ]},
    {"smiles": "NCC12CC3CC(C1)CC(c1ccc(Br)cc1)(C3)C2", "values": [
      {"measurement": "AC50", "setting": "[4]", "value": "16.3 µM (active)"},
      {"measurement": "AC50", "setting": "[5]", "value": "32 µM (active)"},
      {"measurement": "AC50", "setting": "[6]", "value": "5.67 µM (active)"},
      {"measurement": "AC50", "setting": "[7]", "value": "17.1 µM (active)"}
    ]},
    {"smiles": "COc1ccc(N2CCN(C(=O)c3ccc4c(c3)CC(c3ccccc3)OC4=O)CC2)cc1", "note": "(configuration not stated)", "values": [
      {"measurement": "IC50", "setting": "Beta-galactosidase", "value": "> 80 µM (inactive)"}
    ]},
    {"smiles": "CC(Sc1nc(-c2ccccc2)cc(C(F)(F)F)n1)C(=O)N1CCCCC1", "note": "(configuration not stated)", "values": [
      {"measurement": "EC50", "setting": "[8]", "value": "0.214 µM (active)"},
      {"measurement": "EC50", "setting": "[9]", "value": "0.0143 µM (active)"}
    ]},
    {"smiles": "CC(C)C(NS(=O)(=O)c1ccccc1)C(=O)OCc1cc([N+](=O)[O-])cc2c1OCOC2", "note": "(configuration not stated)", "values": [
      {"measurement": "IC50", "setting": "Prothrombin", "value": "> 50 µM (not active)"},
      {"measurement": "EC50", "setting": "[10]", "value": "1.57 µM (active)"}
    ]},
    {"smiles": "COc1ccccc1-c1n[nH]c(=S)n1-c1ccccc1", "values": [
      {"measurement": "EC50", "setting": "[11]", "value": "10.5 µM (inactive)"},
      {"measurement": "EC50", "setting": "[12]", "value": "> 79.4 µM (not active)"},
      {"measurement": "EC50", "setting": "[13]", "value": "6.26 µM (active)"},
      {"measurement": "IC50", "setting": "[14]", "value": "> 100 µM (inactive)"},
      {"measurement": "IC50", "setting": "[15]", "value": "4.99 µM (active)"},
      {"measurement": "AC50", "setting": "[16]", "value": "0.058 µM (active)"},
      {"measurement": "IC50", "setting": "Major prion protein", "value": "7.18 µM (active)"}
    ]},
    {"smiles": "COc1ccccc1-c1nnc(S)n1-c1ccccc1", "values": [
      {"measurement": "IC50", "setting": "cells", "value": "> 138 µM (inactive)"}
    ]}
  ]
}
